Holding throughout (type): binding
Test [1] deals with T1, T. marianensis hinT H100N (Tm hinT^HN) (Thermaerobacter marianensis, UniProt E6SKA2, H100N).
T1 construct: gene Tmar_2180; expressed from pProEx in E. coli BL21, 6xHis cut by TEV, SEC
Description: isothermal titration calorimetry. For orientation: Isothermal titration calorimetry measures the heat released or taken up as one component is titrated into another.

Test [2] has as its target T2, H. sapiens hinT H112N (human hinT^HN) (Homo sapiens, UniProt P49773, H112N).
T2 construct: gene HINT1
T2 sequence (P49773 1-126 H112N): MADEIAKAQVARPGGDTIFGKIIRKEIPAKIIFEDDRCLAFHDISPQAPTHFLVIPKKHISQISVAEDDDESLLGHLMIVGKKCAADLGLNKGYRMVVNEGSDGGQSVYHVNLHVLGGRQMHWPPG
Description: isothermal titration calorimetry.

Test [3] addresses T3, E. coli hinT H101N (Ec hinT^HN) (Escherichia coli, UniProt P0ACE7, H101N).
T3 construct: expressed from pProEx in E. coli BL21, 6xHis cut by TEV, SEC; ATG replaces native TTG start
T3 sequence (P0ACE7 1-119 H101N): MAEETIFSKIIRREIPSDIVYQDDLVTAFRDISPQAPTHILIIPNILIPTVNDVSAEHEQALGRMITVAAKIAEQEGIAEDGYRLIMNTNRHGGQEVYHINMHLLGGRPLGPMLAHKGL
Description: isothermal titration calorimetry.

Test [4] deals with T2, H. sapiens hinT H112N (human hinT^HN). Description: competition pulldown with sucA-AMP, α-AMP immunoblot. The settings on record: GST-tagged hinT on beads, sucA-AMP 470 nM, GMP up to 11.75 μM, TBS with Triton X-100, 1 mM DTT, 4 °C; competitive. Background: In western blotting, separated proteins are transferred to a membrane and probed.

Structures are written as SMILES.

As usually defined, the Kd is the equilibrium constant for the complex coming apart. Lower therefore signals a tighter complex. As for `Nc1ncnc2c1ncn2[C@@H]1O[C@H](COP(=O)(O)O)[C@@H](O)[C@H]1O` [AMP], the Kd in test [1] came to 3 µM; in test [2] it was 0.279 µM; in test [3], 69 µM.
For the compound `Nc1nc2c(ncn2[C@@H]2O[C@H](COP(=O)(O)O)[C@@H](O)[C@H]2O)c(=O)[nH]1` [GMP], in test [4], the “competition pulldown with sucA-AMP, α-AMP immunoblot” value is “increasing concentrations of GMP showed weaker competition with AMPylated proteins for binding to Hs hinT^HN”.

Source of the values: publication PMC12375108 (Nature Communications, 2025).
